# According to patent EP4551202B1, “NAPHTHAZARIN DERIVATIVES FOR TREATMENT OF ONYCHOMYCOSIS” (Christian-Albrechts-Universität zu Kiel, priority 2022, dated 2024):
# Like-named read-outs stand apart in the source and are kept apart here.
# Key:
# [1] = tested on: Candida albicans, strain DSM 1386; experiment: Anti-mycotic activity assay in pathogen suspension (resazurin fluorescence); type: cell-based
# Description: (§1) For determining the IC50 of the anti-mycotic activity of compounds, the human pathogen Candida albicans, strain DSM 1386, or clinical isolates of Trichophyton rubrum obtained from patient samples were used.
# Candida albicans DSM 1386 was cultivated overnight in medium M186/3 (3.3 % glucose, 0.16 % peptone from soybeans, 0.1% yeast extract, 0.1 % malt extract). Test samples were added in triplicates to a 96-well plate for a final assay concentration of 10 µM and 100 µM of pharmaceutical compounds. 200 µl of the yeast was added to each well after diluting the overnight culture to an optical density (600 nm) of 0.03. […] Handling of the test compounds and well plates took place in a darkened room equipped with red-light LEDs to protect them from green light. Microplates were incubated for 5 h at 28 °C on a shaker at 200 rpm. Subsequently, 10 µl resazurin solution (0.3 mg/ml in phosphate buffer) was added to each well and the microplates were incubated again for 30 min before measuring fluorescence (560/590 nm) using a microplate reader (Tecan Infinite M200, Tecan, Männedorf, Switzerland). Nystatin was used as positive control.
# [2] = tested on: Trichophyton rubrum I/95 (patient isolate); experiment: Anti-mycotic activity assay in pathogen suspension (optical density at 600 nm); type: cell-based; conditions: light or radiation study, read-out: Tru IC50 with irradiation
# Description: as §1
# Trichophyton rubrum I/95 (patient isolate) was cultivated for 1 week on GPY (0.1% glucose, 0.05% petone, 0.01 yeast extract, 1.5% agar) at 28°C. A suspension of 5x10^4 spores/ml in M186 (1% glucose, 0.5% peptone from soybeans, 0.3% yeast extract, 0.3% malt extract) was prepared and added to each well of a microplate containing one of the pharmaceutical compounds, which were pipetted in triplicates for a final concentration of […] and 100 µM. The wells were irradiated using the custom-made light source with a peak wavelength of 519 nm. Handling of the test compounds and well plates took place in a darkened room equipped with a red-light LED to protect them from green light. After incubation for 72 h at 28 °C and 120 rpm the optical density at 600 nm was measured using the microplate reader Tecan Infinite M200.
# [3] = Migration into hoof plate from lacquer, Raman spectroscopy of cross-sections; type: in vitro ADME, bovine; conditions: 5 days
# Description: As a further analysis, a bovine hoof plate, 2 mm thickness, was arranged on water-saturated cotton gauze, and pharmaceutical compound was deposited on the opposite surface of the hoof plate. This arrangement was incubated under static conditions at room temperature for 5 days. The pharmaceutical compound was used at 5 wt.-% in a preliminary formulation of 12.5 wt.-% Eudragit RL PO, 60 wt.-% ethanol, 15 wt.-% ethyl acetate, 5 wt.-% butyl acetate, 2.5 wt.-% triacetin, which formulation should mimic the Loceryl lacquer. For comparison, the topic antimycotics amorolfin in Loceryl lacquer and ciclopirox in Ciclopoli were used in parallel.
# After the incubation for 5 d, the lacquer compositions were carefully removed and cross-sections from the hoof plates were made. […] This pattern of measurement points, each at a depth greater by 10 µm, up to a depth of at least 100 µm, was used for Raman spectroscopy for presence of pharmaceutical compound.
# [4] = tested on: Trichophyton rubrum I/95 (patient isolate); experiment: Anti-mycotic activity assay in pathogen suspension (optical density at 600 nm); type: cell-based; conditions: light or radiation study; antimycotic activity against Trichophyton rubrum; without irradiation (dark); read-out: Tru IC50 without irradiation
# C. albicans = experiment: Anti-mycotic activity assay from nail (infected nail model, cow horn membranes); type: cell-based
# [5] = tested on: Trichophyton rubrum I/95 (patient isolates); experiment: as above; conditions: for diffusion of the compound into the supporting agar: from cow horn membrane, infected nail model; for growth of T. rubrum in cow horn membrane: 15 µL/membrane
# Description: For testing the effect of the pharmaceutical compounds in a nail, compounds were applied as a solution of 5 mg/ml or 10 mg/ml in nitrocellulose-based cosmetic nail lacquer, diluted 1: 1 with ethyl acetate, onto cow horn membranes representing nail.
# Trichophyton rubrum I/95 (patient isolates) was cultivated for 1-3 weeks on GPY (0.1 % glucose, 0.05 % peptone, 0.01 yeast extract, 1.5 % agar) at 28°C. For the infected nail model, petri dishes with M186 agar (1% glucose, 0.5% peptone from soybeans, 0.3% yeast extract, 0.3% malt extract, 1.5 % agar, supplemented with 100 U/ml penicillin and […]) where inoculated with the pathogen using sterile cotton swabs. Afterwards autoclaved cow horn membranes (in DPBS-buffer solution, 100 µm thick, 8 mm in diameter) where put onto the agar (5 per petri dish) followed by incubation for 48 h at 29 °C. […] The formulations were applied to 15 µL/membrane to the cow horn membranes using an Eppendorf pipette. After incubation for another 24 h four membranes of each type (control, vehicle, 5 mg/ml or 10 mg/ml deoxyshikonin) were transferred onto fresh petri dishes with the surface to which the formulation was applied now facing the agar. […] Afterwards formulations were applied (15 µL/membrane) onto the untreated side of the membranes (facing upwards), they were allowed to dry and were irradiated again for 5 min (2x). The dishes were incubated for 24 h at 29 °C and irradiated again for 5 min (2x). After 7 days of incubation at 29 °C the dishes were evaluated. Anytime handling the compounds and the agar plates after application of the formulations the ambient light was turned off and a red-light LED was used to protect them from any activating light source.
# [6] = Comparison test of antimycotic effect upon irradiation; type: cell-based
# [7] = DSM1386, light or radiation study, antimycotic activity against Candida albicans, with irradiation, peak wavelength 519 nm, read-out: Ca IC50 with irradiation
# [8] = antimycotic activity against Trichophyton rubrum, with irradiation, peak wavelength 519 nm
# [9] = with irradiation at 519 nm, 5 mg/ml or 10 mg/ml in diluted nitrocellulose-based nail lacquer, evaluated after 7 days
# [10] = without irradiation, compound in diluted nitrocellulose-based nail lacquer
# [11] = Candida albicans, DSM1386, light or radiation study, antimycotic activity against Candida albicans, with irradiation, peak wavelength 519 nm, read-out: Ca IC50 with irradiation
# [12] = antimycotic activity against Candida albicans, with irradiation, peak wavelength 519 nm, read-out: Ca IC50 with irradiation
# [13] = 5 wt.-% in preliminary Eudragit RL PO lacquer formulation, bovine hoof plate 2 mm, room temperature, one topical application
compound,measurement,setting,value
CCC1=CC(=O)c2c(O)ccc(O)c2C1=O [BJ-34],IC50,[1]; [7],715 ± 209 nM
same,IC50,[2]; [8],24.2 ± 20.6 nM
CCCC1=CC(=O)c2c(O)ccc(O)c2C1=O [BJ-35],IC50,[1]; [7],599 ± 289 nM
same,IC50,[2]; [8],13 ± 12.2 nM
Cc1cc(C2CCCCC2)n(O)c(=O)c1 [ciclopirox],depth of migration into the keratin cross-section,[3]; bovine,≤ 40 µm
CC1=C(C)C(=O)c2c(O)ccc(O)c2C1=O [BJ-27],IC50,[1]; [7],2750 ± 70 nM
same,IC50,[2]; [8],321 ± 212 nM
CN(C)C1=CC(=O)c2c(O)ccc(O)c2C1=O [BJ-SK-Amin],IC50,[1]; [7],1480 nM
same,IC50,[4],8140 nM
same,IC50,[2]; [8],3340 nM
CC(C)(C)C1=CC(=O)c2c(O)ccc(O)c2C1=O [BJ-19],IC50,[1]; [7],7650 ± 4480 nM
same,IC50,[2]; [8],244 ± 192 nM
CCC(C)(C)c1ccc(CC(C)CN2C[C@@H](C)O[C@@H](C)C2)cc1 (stereo partly shown) [amorolfin],depth of migration into the keratin cross-section,"[3]; commercial lacquers (amorolfin in Loceryl lacquer, ciclopirox in Ciclopoli), bovine hoof plate 2 mm, room temperature",could not be detected inside the keratin cross-section
"CN(C)c1ccc2nc3ccc(=[N+](C)C)cc-3sc2c1 [methylene blue, reference compound]",growth of C. albicans in cow horn membrane,C. albicans; with irradiation at 519 nm,did not suppress growth
same,growth of C. albicans in cow horn membrane,C. albicans; without irradiation,did not suppress growth
same,diffusion of the compound into the supporting agar,[5],diffusion of methylene blue into the supporting agar
same,growth of T. rubrum in cow horn membrane,[5]; [9],did not suppress growth
same,growth of T. rubrum in cow horn membrane,[5]; [10],did not suppress growth
same,depth of migration into the keratin cross-section,"[3]; bovine, 5 wt.-%",50 µm
O=C1C=C(c2ccccc2)C(=O)c2c(O)ccc(O)c21 [BJ-39],IC50,[2]; [8],2.9 nM
O=C1C=CC(=O)c2c(O)ccc(O)c21 [Naphthazarin],IC50,"[1]; Candida albicans, DSM1386, light or radiation study, read-out: Ca IC50 with irradiation",632 ± 175 nM
same,IC50,[2]; Trichophyton rubrum,353 ± 237 nM
"CC(C)=CCCC1=CC(=O)c2c(O)ccc(O)c2C1=O [DOS, Deoxyshikonin]",IC50,[1]; [11],213 ± 54.7 nM
same,IC50,[1]; [12],213 ± 55 nM
same,growth of T. rubrum in cow horn membrane,[5]; [9],effectively suppressed growth of T. rubrum
same,growth of T. rubrum in cow horn membrane,[5]; [10],reduced compared to both controls but not suppressed
same,IC50,[2]; [8],32.2 ± 17.4 nM
same,depth of migration into the keratin cross-section,[3]; [13],more than 50 µm
CC(C)=CCC(O)C1=CC(=O)c2c(O)ccc(O)c2C1=O (stereo not shown) [Shikonin/ Alkannin],IC50,[1]; [11],1480 nM
same,IC50,[4],10500 ± 6920 nM
same,IC50,[2]; [8],781 ± 407 nM
O=C1C=C(Nc2ccccc2)C(=O)c2c(O)ccc(O)c21 [BJ-49],IC50,[1]; [7],570 nM
same,IC50,[2]; [8],352 ± 150 nM
CCCCC1=CC(=O)c2c(O)ccc(O)c2C1=O [BJ-36],IC50,[1]; [7],556 ± 355 nM
same,growth of C. albicans in cow horn membrane,C. albicans; with irradiation at 519 nm,effectively eliminated any growth
same,growth of C. albicans in cow horn membrane,C. albicans; without irradiation,not effective in suppressing growth
same,diffusion of the compound into the supporting agar,[5],without diffusion of the compound into the supporting agar
same,growth of T. rubrum in cow horn membrane,[5]; [9],effectively eliminated any growth
same,growth of T. rubrum in cow horn membrane,[5]; [10],not effective in suppressing growth
same,IC50,[2]; [8],1 ± 0.3 nM
same,depth of migration into the keratin cross-section,"[3]; bovine, 5 wt.-%",more than 70 µm
CC1=CC(=O)c2c(O)ccc(O)c2C1=O [BJ-18],IC50,[1]; [7],2340 ± 846 nM
same,IC50,"[1]; DSM1386, light or radiation study, antimycotic activity against Candida albicans, without irradiation (dark), read-out: Ca IC50 without irradiation",10900 ± 4080 nM
same,IC50,[2]; [8],87.6 ± 65.4 nM
"C[C@@H]1[C@H](O)[C@@H](C)/C=C/C=C/CC/C=C/C=C/C=C/C=C/C(O[C@H]2O[C@H](C)[C@@H](O)[C@H](N)[C@@H]2O)CC2O[C@](O)(CC(O)C(O)CCC(O)CC(O)CC(O)CC(=O)O[C@H]1C)CC(O)C2C(=O)O (stereo partly shown) [Nystatin, reference compound]",IC50,[1]; [12],1660 ± 886 nM
same,IC50,"[1]; antimycotic activity against Candida albicans, without irradiation (dark), read-out: Ca IC50 without irradiation",692 nM
same,activity under irradiation compared with no irradiation,"[1]; under irradiation, believed to be caused by decomposition under irradiation",lower activity under irradiation
"O=C1C=C(O)C(=O)c2ccccc21 [2-hydroxy-1,4-naphthochinone]",antimycotic effect upon irradiation,[6],essentially no antimycotic effect
NCC(=O)CCC(=O)O [5-amino laevulinic acid],growth of C. albicans in cow horn membrane,C. albicans; with irradiation at 519 nm,did not suppress growth
same,growth of C. albicans in cow horn membrane,C. albicans; without irradiation,did not suppress growth
same,growth of T. rubrum in cow horn membrane,[5]; [9],did not suppress growth
same,growth of T. rubrum in cow horn membrane,[5]; [10],did not suppress growth
same,depth of migration into the keratin cross-section,[3]; [13],30 µm
CC(C)C1=CC(=O)c2c(O)ccc(O)c2C1=O [BJ-28],IC50,[1]; [7],1040 ± 185 nM
same,IC50,[2]; [8],42.7 nM
